The test system of series [1] is bacteria from Helicobacter genus (16S rDNA). Briefly: 16S rDNA PCR, DGGE and sequencing of stomach mucosa homogenates (Example 2). The format is in vivo, BALB/cA mice. The note with it: for H. pylori DNA / sequences specific for H. pylori in PCR products: infected mice treated with alpha-ketoglutarate (Group III B), ethidium bromide staining. As to the method: (§1) DNA was also isolated to perform PCR with primers (5′-[…]-3′ and 5′-[…]-3′) recognizing 16S rDNA fragment in DNA of bacteria from Helicobacter genus. Afterwards PCR products in size 470 by were separated according to denaturating gradient gel electrophoresis technique (DGGE) and sequenced. […] Electrophoresis run at a temp of 60° C. in 125 V during 16 h.

For series [2], the system named is H. pylori, strain 119/95. The series can be described thus: Mice infectious model with H. pylori, three intragastric doses of alpha-ketoglutaric acid salts, culture on GAB-CAMP agar (Example 2). The format is in vivo, BALB/cA mice. The conditions noted are these: for H. pylori colonies cultured from gastric mucosa: infected mice treated 3 consecutive days, 8 days after infection (Group III B); for effect on colonisation of gastric mucosa by H. pylori: three intragastric administrations on 3 consecutive days, started 8 days after last infective dose. As to the method:
Eight days after the last challenge, sixteen mice were inoculated intragastrically through the tube for three successive days with 0.2 ml of 30 mM solution of salts of alpha-ketoglutaric acid (group III B). The remaining eight mice were sham-treated with 0.2 ml of 0.01 M PBS (group III) according to the procedure with group III.
Eight days after above treatment sixteen mice were inoculated with the tube for three consecutive days with salts of […] (0.2 ml, concentration 30 mM) (group IV B). The remaining eight mice were treated with 0.2 ml 0.01 M PBS (group IV).
Stomach and blood were samples were collected for the further studies.
as §1

In the next series the test system is H. pylori infection. The series can be described thus: Volunteers with confirmed H. pylori infection taking the calcium salt with a milk drink (Example 4). The class given is in vivo, human. The conditions noted are these: after two-week treatment.
Another series relates to lactic acid bacteria. The series can be described thus: Lactic acid bacteria isolated from scraped stomach mucosa (antral part). The class given is in vivo. The note with it: animals tested, including mice infected with H. pylori and then inoculated with alpha-ketoglutarate.
Series [3] is described as follows: Morphology of stomach and small intestine mucosa in mice given alpha-ketoglutarate. The format is in vivo. The note with it: mice infected with H. pylori and following inoculation with alpha-ketoglutarate.
In series [4] the test system is H. pylori, strain 119/95.
Protocol: Laboratory experimental animals: twenty eight 6 week-old BALB/cA (female) mice weighing 25±2 g (FIG. 1). […] Two weeks after the last challenge, seven mice were inoculated intragastrically for nine successive days by the same method with a solution of calcium or sodium salt of alpha-ketoglutaric acid (0.2 ml, at concentration 30 mM) (group I A). The remaining seven mice were sham-treated with 0.01 M phosphorate buffer—PBS (group I B) as animals from group I A.
Further fourteen mice from group II A and II B were treated with 0.2 ml PBS according to the scheme operating by the infection of the animals with H. pylori. Two weeks after the above treatment seven mice were continuously inoculated with PBS (0.2 ml) for three consecutive days. The remaining seven mice were treated with a solution of salts of alpha-ketoglutaric acid (0.2 ml, concentration 30 mM) (group II A).
On the 30th day of the experiment all mice were sacrificed using CO2. For further analyses blood and stomach samples from mice infected with H. pylori with or without the following inoculation with salts of alpha-ketoglutaric acid were collected. In this experiment the relationship between colonisation level of mouse stomach mucosa (n=28) by H. pylori and the mice treated intragastrically with salts of alpha-ketoglutaric acid were studied in accordance with the time regime as described above.
37° C., under microaerophilic conditions for 7-10 days. From the half of the antrum gastric mucosa was scraped off and mixed with 500 μl PBS sterilized. After homogenate balancing it was noticed that the amount of the scraped mucosa from the half of the antrum was generally between 40 μg a 50 μg. For calculation of number of H. pylori cells, a 100 μl of gastric mucosa homogenate was smeared onto GAB-CAMP agar plates and incubated at temp. 37° C., for 5-10 days, under microaerophilic conditions. Homogenized mucosa samples from each mouse were examined in triplicate. The results are presented as the mean value±SD. The presence of H. pylori was identified by colony morphology and urease-, oxidase- and catalase tests, as well as by morphological examination of cells by Gram-staining.
The next series deals with gastrin. The note with it: infected with H. pylori then alpha-ketoglutarate, versus control group (PBS); p<0.01.
For series [5] the following is noted: 2-3 years old rats with low initial blood AKG (below 0.1 ug/ml), feed additive; controls did not survive; cited from earlier work.
Setting [6] is: PBS + AKG (Group IV B), non-infected mice.
Where [7] appears, read: listed as salts of alpha-ketoglutaric acid.
Setting [8] is: PBS + AKG (Group II A), non-infected mice.

“Also recorded” adds a separate entry of the source. Where two headings read alike, the source gives them in different places.

For `O=C(O)CCC(=O)C(=O)O` [AKG, alpha-ketoglutarate], the “16S rDNA PCR - Helicobacter genus: Number of mice with H. pylori DNA/in group” value in [1] (H. pylori + AKG (Group III B)) and in [1] (setting [6]) was 0/16 throughout. For the same compound, the results for the “H. pylori DNA / sequences specific for H. pylori in PCR products” value in [1] and in series [1] (setting [7]) were “no H. pylori DNA was found” and “not found”, respectively. Moreover, in the series with cholecystokinin (CCK) (H. pylori + alpha-ketoglutarate versus alpha-ketoglutarate only, p=0.25), the “differences in number of CCK-producing cells in the small intestine” value is “no significant differences”. Also, the “decrease in number of CCK producing cells in the small intestine” value with cholecystokinin (CCK) (animals treated with alpha-ketoglutarate versus non-infected mice given only PBS, tendency, p=0.1) amounted to 30%. For the same compound, the “H. pylori cultivated: Number of mice infected/in group” value in the series with H. pylori, strain 119/95 [2] (H. pylori + AKG (Group III B), 0.2 ml 30 mM intragastrically for 3 days starting 8 days after last challenge, day 20) is listed as 0/16; in the series with H. pylori, strain 119/95 [2] (setting [6]) it was 0/16; in the series on H. pylori, strain 119/95 [4] (H. pylori + AKG (Group I A), 0.2 ml 30 mM intragastrically for 9 days starting 2 weeks after last challenge, day 30) it was 7/7; with H. pylori, strain 119/95 [4] (setting [8]), 0/7. The “H. pylori cultivated: Number of bacteria (cfu)/mouse” value was 0 cfu/mouse in the series with H. pylori, strain 119/95 [2] (H. pylori + AKG (Group III B), H. pylori + PBS gave 4.3 × 10^2 ± 5.0 × 10^1); 0 cfu/mouse in the series with H. pylori, strain 119/95 [2] (setting [6]); 3.8 × 10^2 ± 5.0 × 10^1 cfu/mouse in the series with H. pylori, strain 119/95 [4] (H. pylori + AKG (Group I A), mean ± SD, H. pylori + PBS gave 7.8 × 10^2 ± 5.0 × 10^1); 0 cfu/mouse in the series on H. pylori, strain 119/95 [4] (setting [8]). Also, the “H. pylori colonies cultured from gastric mucosa” value in the series on H. pylori, strain 119/95 [2] is “no H. pylori colonies were found”; with H. pylori, strain 119/95 [2] (setting [7]), “not found; also recorded: no H. pylori colony was cultured”. The “effect on colonisation of gastric mucosa by H. pylori” value was “completely stopped colonisation and fully eradicated H. pylori” with H. pylori, strain 119/95 [2]; “total inhibitory effect on bacterial colonisation and fully eradication of H. pylori bacteria from gastric mucosa” with H. pylori, strain 119/95 [2] (setting [7]). Moreover, the “time for which lack of dyspepsia symptoms was maintained after end of administration” value in the series with H. pylori infection was “one”. For the same compound, the “changes in the amount of lactic acid bacteria isolated from scraped stomach mucosa (antral part)” value in the series with lactic acid bacteria is given as “no changes”. For the same compound, in [3], the “morphological changes in thickening of mucosa in stomach and small intestine, villus width and crypt depth” value was “no morphological changes”. In addition, the “number of colonies (mean±SD) isolated from antral/pyloric part of gastric mucosa” value with H. pylori, strain 119/95 [4] (infected mice treated 9 days (Group I A), infected only 7.8×10^2±5.0×10^1) was 3.8×10^2±5.0×10^1. The “reduction of degree of gastric mucosa colonisation by H. pylori” value in the series with H. pylori, strain 119/95 [4] (nine intragastric administrations on 9 consecutive days, started 14 days after last infective dose, versus mice infected only) is 49%. Besides, the “reduction in the number of gastrin-producing cells in the pyloric region of the stomach glands” value in the series on gastrin stood at 17%.

For the compound `O.O.O=C([O-])CCC(=O)C(=O)[O-].[Na+].[Na+]` [Na2AKG*2H2O], the “survival of the experiment” value in series [5] is “survived the experiment”.

The values above are taken from patent publication US20100124537A1 (priority 2007, published 2010).
